Laboratory results published in patent US20140066498A1, “TRITERPENOID DERIVATIVES, BENZENOID DERIVATIVES, AND PHARMACEUTICAL COMPOSITIONS CONTAINING THE SAME” (National Cheng Kung University, priority 2010, published 2014).
≈ marks a conversion by molar mass, not a printed value. Where two headings read alike, the source gives them in different places.

What was measured:
[1] = biological target: T1, nitric oxide synthase (NOS) (Mus musculus, UniProt P29477); assay: NOS activity: LPS-induced NO production in murine microglial cells (BV2)
T1 sequence (P29477 1-1144): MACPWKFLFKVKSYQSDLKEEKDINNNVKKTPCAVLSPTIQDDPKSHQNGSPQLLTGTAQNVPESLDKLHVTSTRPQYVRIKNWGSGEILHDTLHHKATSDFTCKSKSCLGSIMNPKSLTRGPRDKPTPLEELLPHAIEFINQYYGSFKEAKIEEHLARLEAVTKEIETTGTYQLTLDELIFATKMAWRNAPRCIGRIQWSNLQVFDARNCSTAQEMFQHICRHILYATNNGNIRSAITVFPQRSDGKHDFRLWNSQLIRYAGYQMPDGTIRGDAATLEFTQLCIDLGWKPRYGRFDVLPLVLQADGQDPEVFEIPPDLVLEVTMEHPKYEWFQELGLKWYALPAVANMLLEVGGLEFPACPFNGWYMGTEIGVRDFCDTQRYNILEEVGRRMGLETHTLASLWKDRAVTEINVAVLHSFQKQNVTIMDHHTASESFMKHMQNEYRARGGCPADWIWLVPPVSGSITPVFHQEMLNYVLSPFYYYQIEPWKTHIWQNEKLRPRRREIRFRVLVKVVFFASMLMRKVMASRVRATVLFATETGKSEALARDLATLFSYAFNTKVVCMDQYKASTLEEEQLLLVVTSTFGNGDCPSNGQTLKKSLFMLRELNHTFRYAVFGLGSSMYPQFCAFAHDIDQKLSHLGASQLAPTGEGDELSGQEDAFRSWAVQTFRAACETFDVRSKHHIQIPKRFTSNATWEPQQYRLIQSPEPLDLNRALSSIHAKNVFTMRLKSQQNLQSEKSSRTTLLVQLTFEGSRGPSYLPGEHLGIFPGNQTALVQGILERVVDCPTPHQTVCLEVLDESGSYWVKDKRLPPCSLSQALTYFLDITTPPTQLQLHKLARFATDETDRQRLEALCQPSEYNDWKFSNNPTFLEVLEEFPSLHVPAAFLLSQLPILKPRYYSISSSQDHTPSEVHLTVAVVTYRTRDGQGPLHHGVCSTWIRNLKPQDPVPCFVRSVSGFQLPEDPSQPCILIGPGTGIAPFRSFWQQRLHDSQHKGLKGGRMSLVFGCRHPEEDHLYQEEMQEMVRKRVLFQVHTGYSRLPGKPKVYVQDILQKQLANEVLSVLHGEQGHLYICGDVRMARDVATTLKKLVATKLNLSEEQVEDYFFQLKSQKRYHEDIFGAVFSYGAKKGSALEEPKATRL
Experimental: Microglial cell culture and measurements of mitric oxide (NO). The murine microglial cell line (BV2) was cultured, and the production of NO was measured by the methods as previously described (Wang, Y. H.; Wang, W. Y.; Chang, C. C.; Liou, K. T.; Sung, Y. J.; Liao, J. F.; Chen, C. F.; Chang, S.; Hou, Y. C.; Chou, Y. C.; Shen, Y. C. J. Biomed. Sci. 2006, 13, 127-141).

[2] = system: KB-VIN (multidrug-resistant strain); assay: Cytotoxicity assay against KB-VIN cells in vitro; format: cell-based, human
[3] = system: Hela (human cervical epitheloid carcinoma); assay: MTT cytotoxicity assay, Hela; format: cell-based; settings: Hela cell line
Experimental: (§1) Compounds II-7-II-9, II-13, II-14, II-20, II-21, II-25-II-33, and II-36 were assayed for cytotoxic activity against Doay (human medulloblastoma), Hep2 (human laryngeal carcinoma), MCF-7 (human breast adenocarcinoma), and Hela (human cervical epitheloid carcinoma) cell lines, using a MTT assay method.

[4] = system: MCF-7 (human breast adenocarcinoma); assay: MTT cytotoxicity assay, MCF-7; format: cell-based; settings: MCF-7 cell line
Experimental: as §1

[5] = system: Hep2 (human laryngeal carcinoma); assay: MTT cytotoxicity assay, Hep2; format: cell-based; settings: Hep2 cell line
Experimental: as §1

[6] = system: Daoy (human medulloblastoma); assay: MTT cytotoxicity assay, Daoy; format: cell-based; settings: Daoy cell line
Experimental: as §1

KB (human cancer cell) = assay: Cytotoxicity assay against KB cells in vitro; format: cell-based; settings: NA@20 given for inactive
NADPH oxidase (NOX) = NADPH oxidase (NOX) (Homo sapiens, UniProt P04839); format: cell-based; settings: ROS production triggered with fMLP (2 μM), 1-50 μM test drug, peripheral human neutrophils; mean ± S.E.M.; read-out: IC50 (μM) in NOX fMLP-induced NOX activation in PMN
[7] = read-out: IC50 (μM) in NOS, LPS-induced NO production in BV2 cells, 1-50 μM test drug, mean ± S.E.M.

C=C(CC[C@@H](C)C1CCC2C3=C(C(=O)C[C@@]21C)[C@@]1(C)CCC(O)[C@@H](C)C1CC3O)C(C)C(=O)O (stereo in doubt) [Compound I-2, 3α,7β-dihydroxy-11-oxo-4α-methylergosta-8,24(28)-dien-26-oic acid]
IC50 [1]: 15.7 ± 0.9 µM
EC50 (μM) KB-VIN [2]: NA@20

C=C(CC[C@@H](C)C1CCC2C3=C(C(=O)C[C@@]21C)[C@@]1(C)CCC(O)[C@@H](C)C1CC3=O)C(C)C(=O)OC (stereo in doubt) [Compound I-5, methyl-3α-hydroxy-7,11-dioxo-4α-methylergosta-8,24(28)-dien-26-oate]
ED50 (μg/mL) Hela [3]: 9.0 µg/mL (≈ 18.6 µM)
ED50 (μg/mL) MCF-7 [4]: 6.6 µg/mL (≈ 13.6 µM)
ED50 (μg/mL) Hep2 [5]: 7.0 µg/mL (≈ 14.4 µM)
ED50 (μg/mL) Daoy [6]: 5.2 µg/mL (≈ 10.7 µM)
EC50 (KB (human cancer cell); Homo sapiens): 0.45 µM
EC50 ([2]; Homo sapiens, KBVIN): 2.7 µM

C=C(CC[C@@H](C)C1CCC2C3=C(C(=O)C[C@@]21C)[C@@]1(C)CCC(=O)[C@@H](C)C1CC3O)C(C)C(=O)OC (stereo in doubt) [Compound I-6, methyl-7β-hydroxy-3,11-dioxo-4α-methylergosta-8,24(28)-dien-26-oate]
ED50 (μg/mL) Hela [3]: 8.9 µg/mL (≈ 18.4 µM)
ED50 (μg/mL) MCF-7 [4]: 7.9 µg/mL (≈ 16.3 µM)
IC50 [1]: 2.5 µM
melting point: 100 to 101 °C
ED50 (μg/mL) Hep2 [5]: 3.0 µg/mL (≈ 6.19 µM)
ED50 (μg/mL) Daoy [6]: 4.4 µg/mL (≈ 9.08 µM)
EC50 (KB (human cancer cell); Homo sapiens): 2 µM
EC50 ([2]; Homo sapiens, KBVIN): 2.9 µM

C=C(CC[C@@H](C)C1CCC2C3=C(C(=O)C[C@@]21C)[C@@]1(C)CCC(=O)[C@@H](C)C1CC3O)C(C)C(=O)O (stereo in doubt) [Compound I-7, 7α-hydroxy-3,11-dioxo-4α-methylergosta-8,24(28)-dien-26-oic acid]
EC50 (KB (human cancer cell); Homo sapiens): 15 µM
EC50 ([2]; Homo sapiens, KBVIN): 17.5 µM

C=C(CC[C@@H](C)C1CCC2C3=C(C(=O)[C@H](O)[C@@]21C)[C@@]1(C)CC[C@@H](O)[C@@H](C)C1C[C@H]3O)C(C)C(=O)O (stereo partly drawn) [Compound I-1, 3α,7β,11α-trihydroxy-11-oxo-4α-methylergosta-8,24(28)-dien-26-oic acid]
melting point: 117 to 119 °C
EC50 (μM) KB (KB (human cancer cell)): NA@20
EC50 (μM) KB-VIN [2]: NA@20

C=C(CC[C@@H](C)C1CCC2C3=C(C(=O)C[C@@]21C)[C@@]1(C)CC[C@@H](O)[C@](C)(O)C1CC3=O)C(C)C(=O)O (stereo partly drawn) [Compound I-3, 3α,4β-dihydroxy-7,11-dioxo-4α-methylergosta-8,24(28)-dien-26-oic acid]
melting point: 186 to 188 °C
EC50 (KB (human cancer cell); Homo sapiens): 0.3 µM
EC50 ([2]; Homo sapiens, KBVIN): 2.3 µM

C=C(CC[C@@H](C)[C@H]1CC[C@@]2(O)C3=C(C(=O)C[C@]12C)[C@@]1(C)CCC(=O)[C@@H](C)C1C[C@@H]3O)C(C)C(=O)O (stereo partly drawn) [Compound I-4, 7β,14α-dihydroxy-3,11-dioxo-4α-methylergosta-8,24(28)-dien-26-oic acid]
melting point: 175 to 177 °C
EC50 (KB (human cancer cell); Homo sapiens): 1 µM
EC50 ([2]; Homo sapiens, KBVIN): 1.4 µM

C=C(CC[C@@H](C)[C@H]1CC[C@H]2C3=C(C(=O)C[C@]12C)[C@@]1(C)CCC(=O)[C@@H](C)C1CC3)C(C)C (stereo partly drawn) [Compound I-8, 4α-methylergosta-8,24(28)-dien-3,11-dione]
EC50 (μM) KB (KB (human cancer cell)): NA@20
EC50 (μM) KB-VIN [2]: NA@20

C[C@H](C=C[C@H](C)[C@H](C)CO)[C@H]1CC[C@H]2C3=CCC4CC(=O)CC[C@]4(C)[C@H]3CC[C@]12C (stereo partly drawn) [Compound I-9, (25S)-26-hydroxy-ergosta-7,22-dien-3-one]
IC50 [1]: 12.7 ± 2.2 µM
melting point: 192 to 193 °C
EC50 (μM) KB (KB (human cancer cell)): NA@20
EC50 (μM) KB-VIN [2]: NA@20

C=C(CC[C@@H](C)[C@H]1CC[C@H]2C3=C(C(=O)C[C@]12C)[C@@]1(C)CCC(=O)[C@@H](C)[C@@H]1CC3=O)C(C)C(=O)O (stereo partly shown) [Compound I-11, zhankuic acid A]
ED50 (μg/mL) Hela [3]: — (ED50 > 20 μg/mL)
ED50 (μg/mL) MCF-7 [4]: — (ED50 > 20 μg/mL)
IC50 [1, 7]: 3.6 µM
ED50 (μg/mL) Hep2 [5]: 16.6 µg/mL (≈ 35.4 µM)
IC50 (NADPH oxidase (NOX)): 22.1 ± 6.7 µM
ED50 (μg/mL) Daoy [6]: — (ED50 > 20 μg/mL)
EC50 (KB (human cancer cell)): 3 µM
EC50 [2]: 6.2 µM

C=C(CC[C@@H](C)[C@H]1CC[C@H]2C3=C(C(=O)C[C@]12C)[C@@]1(C)CC[C@@H](O)[C@@H](C)[C@@H]1CC3=O)C(C)C(=O)O (stereo partly shown) [Compound I-12, zhankuic acid B]
IC50 [1, 7]: 9.6 ± 0.7 µM
EC50 (KB (human cancer cell)): 7.3 µM
EC50 [2]: 8.5 µM

C=C(CC[C@@H](C)[C@H]1CC[C@H]2C3=C(C(=O)C[C@]12C)[C@@]1(C)CCC(=O)[C@@H](C)[C@@H]1CC3=O)C(C)C(=O)OC (stereo partly shown) [Compound I-14, zhankuic acid A methyl ester]
IC50 [1, 7]: 0.6 µM
IC50 (NADPH oxidase (NOX)): 8.4 ± 2.1 µM
EC50 (KB (human cancer cell)): > 20 µM
EC50 [2]: > 20 µM

C=C(CC[C@@H](C)[C@H]1CC[C@H]2C3=C(C(=O)C[C@]12C)[C@@]1(C)CCC(=O)[C@@H](C)[C@@H]1C[C@@H]3O)[C@H](C)C(=O)O [Compound I-16, antcin C]
IC50 [1, 7]: 4.2 µM
IC50 (NADPH oxidase (NOX)): 22.6 ± 3.3 µM
EC50 (μM) KB (KB (human cancer cell)): NA@20
EC50 (μM) KB-VIN [2]: NA@20

C=C(CC[C@@H](C)[C@H]1CC[C@H]2C3=C(C(=O)C[C@]12C)[C@@]1(C)CC[C@@H](O)[C@](C)(O)[C@@H]1C[C@@H]3O)C(C)C(=O)O (stereo partly shown) [Compound I-17, antcin K]
IC50 (NADPH oxidase (NOX)): 47.2 ± 8.4 µM
EC50 (μM) KB (KB (human cancer cell)): NA@20
EC50 (μM) KB-VIN [2]: NA@20

CC(C)[C@@H](C)/C=C/[C@@H](C)[C@H]1CC[C@H]2C3=CC[C@H]4C[C@@H](O)CC[C@]4(C)C3=CC[C@]12C [Compound I-20, ergosterol D]
IC50 [1, 7]: 30.6 ± 0.8 µM
IC50 (NADPH oxidase (NOX)): 27.9 ± 5.6 µM

C=C(CC[C@@H](C)[C@H]1CC[C@H]2C3=C(C(=O)C[C@]12C)[C@@]1(C)CCC(=O)[C@@H](C)C1CC3)C(C)C(=O)OC (stereo partly drawn) [Compound I-21, methyl 4α-methylergost-8,24(28)-dien-3,11-dion-26-oate]
IC50 [1]: 1.5 µM

CC(C)[C@@H](C)/C=C/[C@@H](C)[C@H]1CC[C@@H]2[C@]1(C)CC[C@H]1[C@]23C=C[C@]2(C[C@@H](O)CC[C@]12C)OO3 [Compound I-22, ergosterol peroxide]
IC50 [1, 7]: 6.3 ± 1.8 µM

C=C(C)C#Cc1c(C)c(OC)c(OC)c2c1OCO2 [II-2]
IC50 [1, 7]: 12.1 µM

COc1c(C)c(-c2c(C)c(OC)c3c(c2OC)OCO3)c(OC)c2c1OCO2 [II-7, 2,2′,5,5′-tetra-methoxy-3,4,3′,4′-bi-methylenedioxy-6,6′-dimethylbiphenyl]
IC50 [1, 7]: 16.2 ± 1.4 µM

COc1cc(C)c(OC)c2c1OCO2 [II-8, 4,7-dimethoxy-5-methyl-1,3-benzodioxole]
IC50 [1, 7]: 29.1 ± 4.4 µM

eburicol [Compound I-19]
EC50 (KB (human cancer cell)): > 20 µM
EC50 [2]: > 20 µM
